Where “and” joins values, the source holds several entries; their conditions need not be identical. Equal values may be shown once. Entries after “also recorded” stand apart in the source; their conditions may differ. Read-outs that look alike come from different tables or passages of the source. Square brackets hold non-standard residues; d marks the D form. Peptide text beside a SMILES is read from it. * marks the point of attachment. Dolaproine = CO[C@@H]([C@@H]1CCCN1)[C@@H](C)C(=O)O; Dil = CC[C@H](C)[C@H](NC)[C@@H](CC(=O)O)OC; X1 = C[C@@H](N*)[C@@H](O)c1ccccc1; NMeV = CN[C@H](C(=O)O)C(C)C
Columns and labels:
[1] = test system: MOLM-14 cells; assay: MTT cytotoxicity of DM4 on MOLM-14 cells (DF3A2); type: cell-based, human
Experimental: (§1) Log-phase Lovo or MOLM-14 cells were seeded in 96-well microtiter plates at a density of 5,000 cells/well, in 100 μL or 70 μL of culture medium, respectively. Lovo cells were allowed to adhere for 24 h before cell culture media was aspirated and replaced with 100 μL of PBS containing a range of treatment for 6h, then washed for 2 times before replacing with fresh media and incubated for additional 90 h. MOLM-14 cells were re-suspended with treatment solutions, where 100 μL of cell-treatment suspension was aliquoted into wells of a 96-well plate for 24 h. Treatment solutions consisted of DM-4 with or without purified anti-drug sdAb. For MOLM-14 cells, 10 μL of MTT solution (5 mg/mL in pH 7.4 1× PBS) was added directly to wells following treatment incubation. For adherent cells, treatment media was aspirated from wells and cells were washed three times with 100 μL of fresh media. Following the final wash, 100 μL of complete media and 25 μL of MTT solution were added to each well. Cells were incubated for 4 h in order to allow cells to reduce MTT to formazan dye. Once MTT was reduced, 100 μL of 10% SDS prepared in 0.01 M HCl was added to each well and incubated overnight to solubilize the formazan crystals. Formazan dye was measured at 570 nm and normalized by cell debris at 690 nm.

[2] = test system: Lovo cells; assay: MTT cytotoxicity of DM1 and DM4 on Lovo cells; type: cell-based; conditions: for IC50: DM4 alone, read-out: IC50 of DM4
Experimental: as §1, with “Lovo cells were allowed to adhere for 24 h before cell culture media was aspirated and replaced with 100 μL of PBS containing a range of treatment for 6h, then washed for 2 times before replacing with fresh media and incubated for additional 90 h.” left out

[3] = biological target: 8C2 Fab; assay: Competitive SPR assay on exatecan chip; type: binding; conditions: 5 nM Fab, 1 hour incubation
Experimental: Exatecan was immobilized onto a CMS chip through amine coupling. […] Dilutions were incubated for one hour and subsequently injected over the exatecan immobilized chip. The observed maximum response data was fit to a 3 parameter inhibition equation in GraphPad Prism 7.
B/Bo is signal reached after a 3.5 minute injection with spiked in drugs divided by signal with Fab alone.

[4] = test system: SKBR3 cells; assay: Competitive cell assay with SKBR3 cells; type: cell-based
Experimental: SKBR3 cells were diluted to 4000 cells/100 μL and 100 μL was added to individual wells of a 96 well culture plate. Cells were incubated overnight to allow cells to adhere to the plate. […] Dxd and SN38 were diluted at the indicated concentrations and incubated for 90 minutes. Following incubation dilutions were added to individual wells in triplicate with fresh media dilutions added on day 1, 3 and 5 with cell viability evaluated on day 7 using an MTT assay.

[5] = test system: 8C2 mAb; assay: Competitive ELISA of 8C2 with topotecan and SN38 (BSA-topotecan coated); type: binding, murine; conditions: 8C2 held constant at 10 nM; read-out: IC50 in competitive ELISA vs intact 8C2
Experimental: A competitive ELISA was employed to determine the affinity of intact 8C2 mAb for SN38 and topotecan. A BSA-topotecan conjugate was synthesized and immobilized as previously described (Shah et al., Int J Pharm. 2014; 465(1-2):228-238. doi:10.1016/j.ijpharm.2014.01.038) 8C2 concentration was held constant at 10 nM with increasing concentrations of topotecan or SN38. 8C2 drug samples were incubated for 2 hours at room temperature with agitation. Following incubation, wells were washed three times with 250 μL of PBS-T and three times with dH2O. Wells were then incubated with a 1:500 dilution anti-mouse AP conjugate secondary in PBS-T with 3% BSA for 1 h. After washing, 250 μL of 4 mg/ml PNPP in diethanolamine buffer pH 9.8 with absorbance being read at 405 nm. The change in absorbance over time data was fit to a four-parameter function in GraphPad Prism 7.

[6] = test system: HT-29 cells; assay: Competitive cell cytotoxicity (MTT) assay with HT-29 cells; type: cell-based; conditions: in absence of 8C2, read-out: IC50 of SN38
Experimental: (§2) Log-phase MOLM-14, Ramos (RA 1), HT-29, LS174T, or NCI-N87 cells were seeded in 96-well microtiter plates at a density of 20,000 cells/well, 20,000 cells/well, 5,000 cells/well, 5,000 cells/well, and 10,000 cells/well, respectively, in 100 μL of culture medium. HT-29, LS174T, and NCI-N87 cells were allowed to adhere for 24 h before cell culture media was aspirated and replaced with 100 μL of fresh media containing a range of treatment for, 48 (LS174T), 96 (NCI-N87), or 120 (HT-29) h. MOLM-14 and Ramos cells were re-suspended with treatment solutions, where 100 μL of cell-treatment suspension was aliquoted into wells of a 96-well plate for 24 h. Treatment solutions consisted of calicheamicin, MMAE, topotecan, or SN38 with or without immunized animal plasma, purified anti-drug antibody, or antibody-drug conjugate (ADC) with or without plasma or anti-drug antibody. For MOLM-14 and Ramos cells, 25 μL of MTT solution (5 mg/mL in pH 7.4 1× PBS) was added directly to wells following treatment incubation. For adherent cells, treatment media was aspirated from wells and cells were washed three times with 100 μL of fresh media. Following the final wash, 100 μL of complete media and 25 μL of MTT solution were added to each well.

[7] = test system: NCI-N87 cells; assay: Cytotoxicity of MMAE and T-vc-MMAE in NCI-N87 cells with or without plasma; type: cell-based; conditions: 96 h, MMAE alone
Experimental: as §2

[8] = test system: NCI-N87 cells; assay: NCI-N87 pulse cytotoxicity assay with C7 sdAb prep; type: cell-based; conditions: NCI-N87, 2 h pulse, 96 h with sdAb prep diluted 1:6.67
Experimental: FIG. 43. Purification of C7 sdAb from BL21(DE3) transformed E. coli cells and inhibitory cell cytotoxicity assays. C7 sdAb was expressed to the periplasm using a pelB leader sequence and purified using IMAC Ni-NTA resin. […] Although the product was crude, it was employed in cell cytotoxicity assays. NCI-N87 cells were seeded at a density of 10,000 cells/well and pulse with treatment solutions for 2 h. After treatment removal and washing, cells were incubated for 96 h with sdAb prep, diluted 1:6.67 with fresh culture medium.
From the single domain library, there were nine positive hits from three rounds of panning against BSA-MMAF/T-vc-MMAE. The screening of isolated colonies determined all were inhibited by incubation with free MMAE (FIG. 42), with three >10-fold inhibition. One colony, C7 was selected for infection of BL21(DE3) cells and protein expression.

[9] = 8C2 VHH binding to SN38 immobilized on magnetic beads
Experimental: The complementarily determining regions of the 8C2 heavy chain were placed into the stable human framework m0 that was reported by Dimitrov et al (PMID 18687338). DNA encoding for the 8C2 VHH was synthesized by GeneArt. DNA sequences were ligated into the Pet22b vector between the XhoI and NdeI restriction enzyme sites. DNA was transformed into Shuffle T7 express E. coli cells and expressed using standard recombinant expression. To evaluate binding activity, 8C2 VHH was incubated with SN38 immobilized onto magnetic beads and bound VHH detected with an anti-HIS tag HRP labeled reporter antibody. Intact 8C2 mAb was incubated alone and in-combination with 8C2 VHH and 8C2 mAb binding evaluated with an anti-mouse IgG HRP reporter antibody.

[10] = SPR dissociation screening on DM1-Biotin chip; type: binding; conditions: 20 min dissociation phase
Experimental: Preliminary screening of DM1/4 binders were performed using a neutravidin SPR chip with DM1-Biotin on the left channel. Phagemid purified sdAbs were flowed over the SPR chip for 2 minutes at a flow rate of 25 ul/min. After binding, sdAb was dissociated for 20 minutes. Observed sensorgrams were fit to an individual dissociation rate constant for each construct. Equilibrium and kinetic binding of 3A2 was assessed using a CM5 SPR chip with TDM1 immobilized on the left channel. […] Rate constants for 3A2-TDM1 association and dissociation were obtained through fitting of the observed sensorgrams for the 1.25, 2.5, 5, 7.5 and 10 nM injections to a 1:1 Langmuir binding model.

Molecule: COc1cc2cc(c1Cl)N(C)C(=O)C[C@H](OC(=O)[C@H](C)N(C)C(=O)CCC(C)(C)S)[C@]1(C)O[C@H]1[C@H](C)[C@@H]1C[C@@](O)(NC(=O)O1)[C@H](OC)/C=C/C=C(\C)C2 [DM4]
- IC50 ([1]; DM4 alone): 18 nM and 18.4 nM
- IC50 ([2]; 6 h exposure): 7.7 nM and 21.5 nM
- IC50 ([2]; 24 h exposure): 0.713 nM and 1.84 nM

Molecule: CCc1c2c(nc3ccc(O)cc13)-c1cc3c(c(=O)n1C2)COC(=O)[C@]3(O)CC [SN38]
- IC50 for inhibition of Fab binding to immobilized exatecan [3]: low-nanomolar
- IC50 ([4]; viability day 7, read-out: IC50 of free SN38): 1.4 nM
- IC50 [5]: 10.3 nM
- IC50 [6]: 8 nM

Molecule: CC[C@H](C)[C@@H]([C@@H](CC(=O)N1CCC[C@H]1[C@H](OC)[C@@H](C)C(=O)N[C@H](C)[C@@H](O)c1ccccc1)OC)N(C)C(=O)[C@@H](NC(=O)[C@@H](NC)C(C)C)C(C)C [MMAE, monomethyl auristatin E] (H-[NMeV]V[Dil][Dolaproine]-X1)
- IC50 [7]: 0.496 ± 0.0327 nM

Molecule: CC[C@@]1(O)C(=O)OCc2c1cc1n(c2=O)Cc2c-1nc1cc(F)c(C)c3c1c2[C@@H](NC(=O)CO)CC3 [Dxd]
- IC50 for inhibition of Fab binding to immobilized exatecan [3]: low-nanomolar
- IC50 ([4]; viability day 7, read-out: IC50 of Dxd alone): 0.7 nM

B1: MC7 (protein)
VHH: QVQLVQSGGGLVQAGGSLRLSCVASGRTFSMYRMGWFRQAPGKEREFVASIRWSGGSTYYTDSVKDRFTISRDNAKNTVYLQMNSLKPEDTAVYYCAADPVWRLNSWYRGAVGYWGQGTQVTVSS
modifications: MC7
- fold enhancement of T-vc-MMAE cytotoxicity [8]: 5.2 fold
- fold inhibition of MMAE cytotoxicity [8]: 5.6 fold

B2: 8C2 VHH: heavy chain CDRs of 8C2 placed into a stable human framework, SEQ ID NO:69 (protein)
VHH: QVQLVQSGGGLVQPGGSLRLSCAASGFNIKDTYIHWMSWVRQAPGKGLEWVSPDLANDNTKYDPKYYADSVKGRFTISRDNSKNTLYLQMNTLRAEDTAVYYCATWGAIITLGGWGQTMVTVSS
modifications: 8C2 VHH
- increase in binding signal vs beads with blank buffer ([9]; anti-HIS detection): 2 ×
- decrease of 8C2 mAb binding by addition of 8C2 VHH ([9]; anti-mouse IgG detection): ~2 fold

B3: DF3A2 (protein)
VHH: QVQLQESGGGLVQPGGSLRLSCAASGGIFGISYMGWYRQAPGKQREPVALITSGGDTAYGDSVKGRFAISRDNAKNTVYLQMNSLKPDDTSAYYCAAGFYRSDSPNRYDYWGQGTQVTVSS
modifications: DF3A2
- fold inhibition of DM4 cytotoxicity [1]: 2.1 fold
- dissociation kinetics [10]: longest dissociation rates; also recorded: longer dissociation rates
- fold shift of DM4 IC50 ([2]; 6 h exposure): 11 fold

Reference: patent publication US12624123B2, “Compositions and methods for reducing off-target toxicity of antibody drug conjugates” (The Research Foundation for The State University of New York, priority 2019, dated 2026)
